Consider three compounds from article PMC9939793 (Infection and Drug Resistance, 2023).

Test [1] addresses neuraminidase of A(H1N1)pdm09-S247N isolate (A/NRW/142/2019) (Influenza A virus, UniProt A0A0X9QTS2, S247N). It counts as biochemical.
Test [2] has as its system A(H3N2) PA-I38M isolate (A/Berlin/9/2020). It counts as cell-based, influenza A(H3N2).

Take `CCC(CC)[C@H](NC(C)=O)[C@@H]1[C@H](O)[C@@H](C(=O)O)C[C@H]1N=C(N)N` [Peramivir, peramivir]: in test [1], the IC50 increase result is recorded as “up to 7 fold”.

Take `COC(=O)OCOc1c2n(ccc1=O)N([C@@H]1c3ccccc3SCc3c1ccc(F)c3F)[C@@H]1COCCN1C2=O` [baloxavir marboxil, Baloxavir marboxil]: the “reduction of antiviral activity” value in test [2] is “up to 5 fold”.

Consider `CC(=O)N[C@H]1[C@H]([C@H](O)[C@H](O)CO)OC(C(=O)O)=C[C@@H]1N=C(N)N` [Zanamivir, zanamivir], for which, in test [1], the IC50 increase entry was “up to 7 fold”.
